How the values were obtained:
[1] = biological target: T1, DNA topoisomerase 1 (Homo sapiens) (UniProt P11387); experiment: Inhibition of recombinant human topoisomerase 1 assessed as relaxation of supercoiled plasmid DNA pBR322 at 100 uM incubated for 30 mins by agarose gel electrophoresis
T1 sequence (whole entry): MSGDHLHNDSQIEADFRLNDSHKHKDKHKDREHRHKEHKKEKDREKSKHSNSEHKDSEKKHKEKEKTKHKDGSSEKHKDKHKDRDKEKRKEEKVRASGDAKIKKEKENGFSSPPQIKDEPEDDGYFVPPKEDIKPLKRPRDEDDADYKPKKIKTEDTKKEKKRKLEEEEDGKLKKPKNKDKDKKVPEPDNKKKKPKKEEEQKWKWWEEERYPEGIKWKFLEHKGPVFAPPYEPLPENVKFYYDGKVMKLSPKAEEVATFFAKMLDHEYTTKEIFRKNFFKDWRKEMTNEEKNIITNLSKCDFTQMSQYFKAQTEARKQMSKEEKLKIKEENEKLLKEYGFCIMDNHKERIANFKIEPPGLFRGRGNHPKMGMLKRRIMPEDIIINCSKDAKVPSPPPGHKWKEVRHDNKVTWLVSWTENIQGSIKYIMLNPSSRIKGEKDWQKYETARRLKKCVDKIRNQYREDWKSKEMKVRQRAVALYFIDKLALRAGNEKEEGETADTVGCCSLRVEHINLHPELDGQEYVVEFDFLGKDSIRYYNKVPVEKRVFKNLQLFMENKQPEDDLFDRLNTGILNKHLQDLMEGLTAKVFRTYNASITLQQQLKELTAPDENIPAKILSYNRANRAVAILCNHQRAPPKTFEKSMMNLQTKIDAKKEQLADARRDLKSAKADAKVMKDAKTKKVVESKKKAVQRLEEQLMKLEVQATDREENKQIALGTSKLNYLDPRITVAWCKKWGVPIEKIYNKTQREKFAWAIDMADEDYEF

T47D = experiment: Cytotoxicity against human T47D cells measured after 2 days by MTT assay; type: functional, cell-based; details: 48 h
HCT-15 = experiment: Cytotoxicity against human HCT15 cells measured after 2 days by MTT assay; type: functional, cell-based; details: HCT-15, 48 h
[2] = biological target: DNA topoisomerase 2-alpha (Homo sapiens) (UniProt P11388); experiment: Inhibition of recombinant human topoisomerase 2alpha assessed as relaxation of supercoiled plasmid DNA pBR322 at 100 uM incubated for 30 mins by agarose gel electrophoresis
DNA topoisomerase 2-alpha (Homo sapiens), sequence (P11388 whole entry): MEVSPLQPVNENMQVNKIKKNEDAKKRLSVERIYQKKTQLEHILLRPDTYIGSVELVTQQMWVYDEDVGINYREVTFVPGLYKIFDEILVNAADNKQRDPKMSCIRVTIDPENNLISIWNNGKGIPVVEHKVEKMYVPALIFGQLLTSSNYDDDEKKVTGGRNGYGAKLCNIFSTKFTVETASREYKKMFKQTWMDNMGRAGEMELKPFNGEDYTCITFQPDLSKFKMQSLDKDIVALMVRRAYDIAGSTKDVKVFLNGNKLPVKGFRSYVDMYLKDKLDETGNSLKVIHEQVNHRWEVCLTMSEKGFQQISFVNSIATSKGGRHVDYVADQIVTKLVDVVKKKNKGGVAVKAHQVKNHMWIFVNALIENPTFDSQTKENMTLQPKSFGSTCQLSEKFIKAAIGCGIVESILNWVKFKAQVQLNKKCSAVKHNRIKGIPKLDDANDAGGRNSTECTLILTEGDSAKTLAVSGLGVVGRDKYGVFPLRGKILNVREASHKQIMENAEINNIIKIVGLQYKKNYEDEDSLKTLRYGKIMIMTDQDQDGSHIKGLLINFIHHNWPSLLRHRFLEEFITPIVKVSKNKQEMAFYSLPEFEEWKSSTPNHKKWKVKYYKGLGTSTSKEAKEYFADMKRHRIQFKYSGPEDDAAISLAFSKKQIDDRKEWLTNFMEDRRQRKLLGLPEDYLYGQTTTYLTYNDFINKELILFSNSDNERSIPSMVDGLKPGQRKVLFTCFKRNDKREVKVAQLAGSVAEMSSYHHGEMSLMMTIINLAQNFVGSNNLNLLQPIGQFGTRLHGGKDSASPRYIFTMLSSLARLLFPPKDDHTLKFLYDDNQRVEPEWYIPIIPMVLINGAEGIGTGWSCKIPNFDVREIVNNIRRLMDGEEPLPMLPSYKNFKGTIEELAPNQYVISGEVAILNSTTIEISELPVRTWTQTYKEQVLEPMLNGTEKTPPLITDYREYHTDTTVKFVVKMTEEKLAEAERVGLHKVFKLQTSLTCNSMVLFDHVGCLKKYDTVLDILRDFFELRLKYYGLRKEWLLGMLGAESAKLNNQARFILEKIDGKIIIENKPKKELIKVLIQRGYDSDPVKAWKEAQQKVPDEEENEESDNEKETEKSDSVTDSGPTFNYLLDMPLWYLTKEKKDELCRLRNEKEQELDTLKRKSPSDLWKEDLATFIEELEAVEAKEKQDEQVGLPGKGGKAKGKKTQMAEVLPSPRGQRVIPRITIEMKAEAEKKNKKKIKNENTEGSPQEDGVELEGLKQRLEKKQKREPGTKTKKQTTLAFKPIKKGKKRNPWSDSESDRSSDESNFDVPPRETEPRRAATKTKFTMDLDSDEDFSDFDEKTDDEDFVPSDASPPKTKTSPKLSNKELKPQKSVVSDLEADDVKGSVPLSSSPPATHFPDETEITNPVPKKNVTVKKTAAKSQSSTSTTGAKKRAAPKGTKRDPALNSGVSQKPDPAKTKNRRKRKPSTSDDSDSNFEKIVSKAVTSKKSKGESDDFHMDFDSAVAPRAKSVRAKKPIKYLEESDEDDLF

[3] = biological target: T1, DNA topoisomerase 1 (Homo sapiens); experiment: Inhibition of recombinant human topoisomerase 1 assessed as relaxation of supercoiled plasmid DNA pBR322 at 20 uM incubated for 30 mins by agarose gel electrophoresis
HeLa = experiment: Cytotoxicity against human HeLa cells measured after 2 days by MTT assay; type: functional, cell-based; details: 48 h
[4] = biological target: T1, DNA topoisomerase 1 (Homo sapiens); experiment: Potency index, ratio of compound activity to CPT activity for inhibition of recombinant human topoisomerase 1 at 100 uM
[5] = biological target: T1, DNA topoisomerase 1 (Homo sapiens); experiment: Potency index, ratio of compound activity to CPT activity for inhibition of recombinant human topoisomerase 1 at 20 uM

SMILES	inhibition [1] [%]	inhibition [2] [%]	inhibition [3] [%]	Ratio [4]	Ratio [5]	IC50 (T47D) [µM]	IC50 (HCT-15) [µM]	IC50 (HeLa) [µM]
COc1cc([C@@H]2c3cc4c(cc3[C@@H](O[C@@H]3O[C@@H]5CO[C@@H](C)O[C@H]5[C@H](O)[C@H]3O)[C@H]3COC(=O)[C@H]23)OCO4)cc(OC)c1O [ETOPOSIDE]						9.28	5.54	7.6
CN(C)c1ccc2nc(-c3cccc4ccccc34)[nH]c(=O)c2c1	100	0	2.4	1.24	0.14	> 50	0.46	0.05
COc1cccc(-c2nc3ccc(N4CCCCC4)cc3c(=O)[nH]2)c1OC	80.9	0	0	0.97		10.4	24.8	8.19
CCN(CC)c1ccc2nc(-c3ccccc3N(C)C)[nH]c(=O)c2c1	82.1	0	0	0.99		2.21	4.2	0.07
CCN(CC)c1ccc2nc(-c3cccc4ccccc34)[nH]c(=O)c2c1	90.4	0	25.5	1.17	0.83	2.69	3.21	0.004
COc1cccc2c1C(=O)c1c(O)c3c(c(O)c1C2=O)C[C@@](O)(C(=O)CO)C[C@@H]3O[C@H]1C[C@H](N)[C@H](O)[C@H](C)O1 [DOXORUBICIN]						1.9	3.33	0.52
O=c1[nH]c(-c2cccc3ccccc23)nc2ccc(N3CCCCC3)cc12	100	0	33.4	1.24	1.94	> 50	2.24	0.33
CC[C@@]1(O)C(=O)OCc2c1cc1n(c2=O)Cc2cc3ccccc3nc2-1 [CAMPTOTHECIN]						1.62	6.08	1.59

Continued, in another order:

inhibition [1] [%]	inhibition [2] [%]	inhibition [3] [%]	Ratio [4]	Ratio [5]	SMILES	IC50 (T47D) [µM]	IC50 (HCT-15) [µM]	IC50 (HeLa) [µM]
81.2	0	0	0.98		CCN(CC)c1ccc2nc(-c3ccccc3OC(F)(F)F)[nH]c(=O)c2c1	1.67	1.71	0.04
100	0	60.1	1.29	1.95	Cc1ccc2c(=O)[nH]c(-c3cccc4ccccc34)nc2c1	> 50	23.3	> 50
77.2	0	0	0.93		Cc1ccc2c(=O)[nH]c(-c3cccc(OC(F)(F)F)c3)nc2c1	> 50	> 50	> 50
100	0	100	1.29	3.25	Cc1ccc2c(=O)[nH]c(-c3ccccc3OC(F)(F)F)nc2c1	> 50	15.9	18.3
100	0	93.6	1.29	3.04	Cc1ccc2c(=O)[nH]c(-c3cccc(C(F)(F)F)c3)nc2c1	> 50	> 50	> 50
98.6	0	0	1.39		Cc1ccc2nc(-c3cccc(OC(F)(F)F)c3)[nH]c(=O)c2c1	> 50	> 50	> 50
0	0				Cc1ccc2nc(-c3ccccc3C)[nH]c(=O)c2c1	> 50	11.7	4.58
81.2	0	0	0.98		Cc1ccc2c(=O)[nH]c(-c3ccccc3F)nc2c1	> 50	10.3	0.83
